Biological target: T1, Human transferrin (Htf) (Homo sapiens, UniProt P02787)
T1 construct: gene TF; single-chain glycoprotein of 679 amino acids (mature plasma protein)
Experiment: intrinsic fluorescence quenching, modified Stern-Volmer
Assay type: binding
Conditions: 5 μM protein, sodium phosphate (PBS) buffer, excitation 280 nm, emission 300-400 nm, ligand 1-10 μM from DMSO stock; pH and temperature not given

T1 sequence (P02787 20-698): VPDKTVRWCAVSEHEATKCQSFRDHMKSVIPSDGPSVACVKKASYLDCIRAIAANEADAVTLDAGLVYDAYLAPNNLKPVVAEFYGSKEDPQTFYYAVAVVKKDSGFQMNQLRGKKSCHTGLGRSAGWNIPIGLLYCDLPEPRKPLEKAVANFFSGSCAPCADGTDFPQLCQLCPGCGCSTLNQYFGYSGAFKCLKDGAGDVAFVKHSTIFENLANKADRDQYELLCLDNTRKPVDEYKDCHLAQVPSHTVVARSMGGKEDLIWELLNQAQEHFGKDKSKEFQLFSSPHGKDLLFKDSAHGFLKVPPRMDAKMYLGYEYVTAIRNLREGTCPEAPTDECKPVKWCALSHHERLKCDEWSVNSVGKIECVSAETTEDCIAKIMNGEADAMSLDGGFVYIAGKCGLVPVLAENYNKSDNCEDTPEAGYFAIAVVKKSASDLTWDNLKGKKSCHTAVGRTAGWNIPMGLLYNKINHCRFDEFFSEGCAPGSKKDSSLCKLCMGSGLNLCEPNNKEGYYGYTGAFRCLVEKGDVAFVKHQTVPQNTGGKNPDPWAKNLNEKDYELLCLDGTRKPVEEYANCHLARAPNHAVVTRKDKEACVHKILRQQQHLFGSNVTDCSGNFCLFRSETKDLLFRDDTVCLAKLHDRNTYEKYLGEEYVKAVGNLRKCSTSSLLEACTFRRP

**Q.** Which K does the source give for NCCc1c[nH]c2ccccc12 [Tryptamine] here?
**A.** 480000 M⁻¹
